Assay results published in patent publication US4550021A (The Kitasato Institute, priority 1983, dated 1985).

Columns and labels:
Type in all cases: physicochemical
Stability under heating = assay: Stability under heating
Nature (acid/base) = assay: Nature (acid/base)
Solubility = settings: for Solubility in organic solvents: dichloromethane, chloroform, acetone

CCC(=C/[C@H](C)C/C=C/C(C)=C/[C@@H](CO)C(=O)[C@@H](C)[C@H](O)[C@@H](C)C/C(C)=C/C(=O)O)/C=C/[C@@H]1OC(=O)C=C[C@@H]1C [antibiotic 81-484]
stability under heating (Stability under heating): stable under heating | Nature (Nature (acid/base)): acidic substance | Solubility in organic solvents (Solubility; diethyl ether, methanol, ethyl acetate, butyl acetate, benzene): soluble | Solubility in hexane (Solubility; hexane): insoluble | Solubility in organic solvents (Solubility; many types: methanol, ethanol, methyl isobutyl ketone): soluble | Solubility in water (Solubility; water): insoluble
